Experimental data published in patent US20200113950A1, “Human microbiota derived N-acyl amides for the treatment of human disease” (The Rockefeller University, priority 2017, published 2020).
pEC50, pIC50: −log10 of the molar value. Entries after “also recorded” stand apart in the source; their conditions may differ.

Tests used:
GLUTag cells = test: GLP-1 release from GLUTag cells; assay type: cell-based, Murine; details: equimolar concentrations, 2 hours
Text: (§1) GPR119 is the most extensively studied of the GPCRs activated by bacterial N-acyl amides (FIG. 4). Mechanisms that link endogenous GPR119 agonists (OEA, 2-OG) to changes in host phenotype are well defined as a result of the exploration of GPR119 as a therapeutic target for the treatment of diabetes and obesity. In fact, synthetic small molecule GPR119 agonists are in clinical trials as treatment for both diseases (Ritter et al., 2016, J Med Chem 59:3579-92; Nunez et al., 2014, PLoS One 9:e92494; Ha et al., 2014, Arch Pharm Res 37:671-8; Katz et al., 2012, Diabetes Obes Metab 14:709-16). GPR119 agonists are thought to affect diverse metabolic functions, primarily glucose homeostasis but also gastric emptying and appetite, in vivo through GPR119-dependent hormone release from enteroendocrine cells (GLP-1, GIP, PYY) and pancreatic β-cells (insulin) (Flock et al., 2011, Endorinol 152:374-83; Overton et al., 2006, Cell Metab 3:167-75; Chu et al., 2007, Endocrinol 148:2601-9; Chu et al., 2008, Endocrinol 149:2038-47; Lauffer et al., 2009, Diabetes 58:1058-66; Serrano et al., 2011, Neuropharmacol 60:593-601). Murine enteroendocrine GLUTag cells have been used as a model system for measuring the ability of potential GPR119 agonists to induce GLP-1 release. […] To provide an orthogonal measurement of GPR119 activation by N-acyl serinols, HEK293 cells were stably transfected with a GPR119 expression construct.
Oleoyl ethanolamide and 2-oleoyl glycerol were purchased from Cayman Chemical Company and resuspended in DMSO to a concentration of 10 mM. N-oleoyl serinol was isolated and purified in the same manner as N-palmitoyl serinol described above and confirmed by ^1H NMR and HRMS. N-oleoyl serinol was resuspended at 10 mM concentration in DMSO. GLUTag cells were obtained from the Mangelsdorf Lab (University of Texas Southwestern) with permission from Daniel Drucker (Mount Sinai Hospital Toronto). […] Media was then collected, centrifuged at 500×g (4° C.) for 5 minutes and cell free supernatant was analyzed for GLP-1 level using the Active GLP-1 V2 kit (Mesoscale Discovery). […]

S1PR3 = S1PR3 (Homo sapiens, UniProt Q99500); test: β-arrestin GPCR screen, agonist mode, S1PR3; assay type: cell-based
S1PR3, sequence (Q99500 whole entry): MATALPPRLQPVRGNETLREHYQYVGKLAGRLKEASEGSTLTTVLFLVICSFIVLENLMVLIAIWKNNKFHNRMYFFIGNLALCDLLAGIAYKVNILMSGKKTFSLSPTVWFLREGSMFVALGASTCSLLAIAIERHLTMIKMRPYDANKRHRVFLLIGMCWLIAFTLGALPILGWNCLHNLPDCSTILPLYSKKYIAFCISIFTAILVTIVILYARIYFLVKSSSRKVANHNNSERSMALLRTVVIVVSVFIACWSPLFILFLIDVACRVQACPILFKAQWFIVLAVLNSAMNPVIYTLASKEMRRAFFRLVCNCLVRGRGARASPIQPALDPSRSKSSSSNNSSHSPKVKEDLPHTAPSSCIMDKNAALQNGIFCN
Method: (§2) Using β-arrestin cell-based assays at 10 uM ligand concentration, agonist and antagonist activity was assessed by DiscoveRx against 168 GPCRs with known ligands as well as 72 orphan GPCRs. […] Synthetic N-acyl amides were assayed in the same fashion.

[1] = biological target: T1, sphingosine-1-phosphate receptor 4 (S1PR4) (Homo sapiens, UniProt O95977); test: β-arrestin cell-based GPCR assay (DiscoveRx), agonist mode, S1PR4; details: for agonist activity at / interaction with S1PR4: GPCR screen
T1 sequence (O95977 1-384): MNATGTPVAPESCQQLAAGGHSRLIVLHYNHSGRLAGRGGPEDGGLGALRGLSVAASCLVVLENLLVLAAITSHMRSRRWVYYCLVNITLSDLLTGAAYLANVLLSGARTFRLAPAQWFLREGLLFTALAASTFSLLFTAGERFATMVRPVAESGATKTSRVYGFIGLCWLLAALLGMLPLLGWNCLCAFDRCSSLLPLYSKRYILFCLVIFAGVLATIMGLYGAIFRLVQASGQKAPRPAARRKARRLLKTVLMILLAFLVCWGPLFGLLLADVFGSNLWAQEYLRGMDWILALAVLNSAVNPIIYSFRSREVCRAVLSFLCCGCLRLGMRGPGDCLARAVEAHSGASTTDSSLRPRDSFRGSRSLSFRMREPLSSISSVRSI
Method: The major N-acyl amide analog isolated from each family was assayed for agonist and antagonist activity against a panel of 240 human GPCRs (FIG. 3 and FIG. 8).
as §2

S1PR1 = S1PR1 (Homo sapiens, UniProt P21453); test: β-arrestin GPCR screen, agonist mode, S1PR1; assay type: cell-based
S1PR1, sequence (P21453 whole entry): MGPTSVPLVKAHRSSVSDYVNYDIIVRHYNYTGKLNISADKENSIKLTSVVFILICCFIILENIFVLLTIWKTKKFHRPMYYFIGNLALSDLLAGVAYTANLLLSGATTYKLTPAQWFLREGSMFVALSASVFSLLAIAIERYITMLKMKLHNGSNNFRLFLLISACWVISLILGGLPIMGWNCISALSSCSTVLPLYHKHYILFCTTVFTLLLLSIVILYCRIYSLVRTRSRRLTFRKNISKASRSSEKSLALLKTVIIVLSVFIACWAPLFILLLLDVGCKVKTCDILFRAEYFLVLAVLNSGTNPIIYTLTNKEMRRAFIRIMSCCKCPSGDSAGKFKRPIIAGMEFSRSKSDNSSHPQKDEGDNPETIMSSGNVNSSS
Method: as §2

S1PR2 = S1PR2 (Homo sapiens, UniProt O95136); test: β-arrestin GPCR screen, agonist mode, S1PR2; assay type: cell-based
S1PR2, sequence (O95136 whole entry): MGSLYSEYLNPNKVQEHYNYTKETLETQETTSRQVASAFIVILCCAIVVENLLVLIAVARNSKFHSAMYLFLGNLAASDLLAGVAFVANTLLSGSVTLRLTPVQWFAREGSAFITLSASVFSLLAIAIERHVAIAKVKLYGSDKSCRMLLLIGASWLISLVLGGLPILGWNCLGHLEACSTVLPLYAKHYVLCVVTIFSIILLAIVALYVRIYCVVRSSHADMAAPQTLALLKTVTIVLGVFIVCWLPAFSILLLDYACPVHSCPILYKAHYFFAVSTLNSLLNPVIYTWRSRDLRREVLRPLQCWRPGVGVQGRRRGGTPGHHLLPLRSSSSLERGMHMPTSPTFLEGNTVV
Method: as §2

G2A = biological target: T2, G2A (Homo sapiens, UniProt Q9UNW8); test: β-arrestin cell-based GPCR assay (DiscoveRx), agonist mode, orphan receptor G2A; details: for activation of G2A: GPCR screen
T2 sequence (Q9UNW8 1-380): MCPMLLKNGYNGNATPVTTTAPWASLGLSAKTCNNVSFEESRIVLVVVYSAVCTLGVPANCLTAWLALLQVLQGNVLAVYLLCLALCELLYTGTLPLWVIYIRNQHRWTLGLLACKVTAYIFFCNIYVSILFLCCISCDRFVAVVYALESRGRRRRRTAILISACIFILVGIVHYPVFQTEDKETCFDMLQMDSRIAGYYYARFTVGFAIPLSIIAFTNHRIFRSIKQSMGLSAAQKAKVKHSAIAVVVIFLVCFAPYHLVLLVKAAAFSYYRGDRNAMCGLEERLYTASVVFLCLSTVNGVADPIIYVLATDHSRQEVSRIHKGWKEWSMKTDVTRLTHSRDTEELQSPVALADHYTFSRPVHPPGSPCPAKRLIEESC
Method: (§3) The major N-acyl amide analog isolated from each family was assayed for agonist and antagonist activity against a panel of 240 human GPCRs (FIG. 3 and FIG. 8). […] The maximal activation of GPR119 and S1PR4 by the bacterial N-acyl amides was similar to the endogenous ligand (GPR119 100%, S1PR4 80%). Interactions between the bacterial N-acyl amides and GPCRs were also specific (FIG. 3A and FIG. 3B).
(§4) For each of the 6 N-acyl amide families (1-6) the analogue produced at the highest level in the heterologous expression experiments was assayed for GPCR activity. In the case of family 4 the major lysine analogue (N-3-hydroxyoleoyl lysine) was screened. Using β-arrestin cell-based assays at 10 uM ligand concentration, agonist and antagonist activity was assessed by DiscoveRx against 168 GPCRs with known ligands as well as 72 orphan GPCRs. […] Synthetic N-acyl amides were assayed in the same fashion.

PTGIR = PTGIR (Homo sapiens, UniProt P43119); test: β-arrestin cell-based GPCR assay (DiscoveRx), antagonist mode, PTGIR
PTGIR, sequence (P43119 whole entry): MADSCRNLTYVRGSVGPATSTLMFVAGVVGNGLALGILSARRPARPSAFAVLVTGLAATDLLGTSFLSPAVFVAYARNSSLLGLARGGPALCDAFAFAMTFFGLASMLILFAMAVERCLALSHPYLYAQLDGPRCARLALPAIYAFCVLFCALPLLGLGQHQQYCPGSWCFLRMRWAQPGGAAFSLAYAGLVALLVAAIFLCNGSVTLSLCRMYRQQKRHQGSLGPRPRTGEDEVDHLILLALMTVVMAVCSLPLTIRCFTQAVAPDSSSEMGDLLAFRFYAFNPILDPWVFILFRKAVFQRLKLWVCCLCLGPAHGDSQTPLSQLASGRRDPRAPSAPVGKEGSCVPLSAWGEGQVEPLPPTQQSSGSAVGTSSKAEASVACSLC
Method: as §3, §4

PTGER4 = PTGER4 (Homo sapiens, UniProt P35408); test: β-arrestin cell-based GPCR assay (DiscoveRx), antagonist mode, PTGER4
PTGER4, sequence (P35408 whole entry): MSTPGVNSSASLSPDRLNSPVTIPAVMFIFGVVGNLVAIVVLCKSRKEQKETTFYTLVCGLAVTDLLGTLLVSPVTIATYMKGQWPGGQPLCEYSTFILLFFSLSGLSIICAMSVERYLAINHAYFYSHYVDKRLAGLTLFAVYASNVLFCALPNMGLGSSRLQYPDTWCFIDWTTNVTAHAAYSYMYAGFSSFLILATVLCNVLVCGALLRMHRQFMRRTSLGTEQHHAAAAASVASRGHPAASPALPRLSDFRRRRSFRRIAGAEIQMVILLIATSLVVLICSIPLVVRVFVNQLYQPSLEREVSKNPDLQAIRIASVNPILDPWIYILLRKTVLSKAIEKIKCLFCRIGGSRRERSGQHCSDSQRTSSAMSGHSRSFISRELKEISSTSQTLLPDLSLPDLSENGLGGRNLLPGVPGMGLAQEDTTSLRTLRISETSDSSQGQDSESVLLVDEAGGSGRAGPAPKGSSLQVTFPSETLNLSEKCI
Method: as §3, §4

GPR119 [2] = biological target: T3, GPR119 (Homo sapiens, UniProt Q8TDV5); test: β-arrestin cell-based GPCR assay (DiscoveRx), agonist mode, GPR119; details: for interaction with GPR119: GPCR screen and dose response, FIG. 8
T3 sequence (Q8TDV5 1-335): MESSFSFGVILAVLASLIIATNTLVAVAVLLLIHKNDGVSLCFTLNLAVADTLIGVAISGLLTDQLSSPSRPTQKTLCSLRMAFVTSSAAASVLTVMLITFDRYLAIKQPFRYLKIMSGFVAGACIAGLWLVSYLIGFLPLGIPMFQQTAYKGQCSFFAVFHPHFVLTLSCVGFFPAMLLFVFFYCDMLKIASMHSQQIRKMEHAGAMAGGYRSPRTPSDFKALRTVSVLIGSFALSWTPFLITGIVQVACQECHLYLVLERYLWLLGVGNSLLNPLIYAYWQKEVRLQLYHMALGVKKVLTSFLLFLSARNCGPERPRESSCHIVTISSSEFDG
Method: as §3, §4

GPR119 [3] = biological target: T3, GPR119; test: cAMP secondary assay in ACTOne HEK293 cells transfected with GPR119; assay type: cell-based; parameters: expressed in transfected cells; host or cells: ACTOne HEK293 cells; details: for cellular cAMP concentration: HEK293 cells stably transfected with GPR119 vs native cells
Method: FIG. 10 depicts a secondary assay of GPR119. ACTOne HEK293 cells (control) and ACTOne HEK293 cells transfected with GPR119 were exposed to equimolar concentrations of the endogenous GPR119 ligand oleoylethanolamide or the bacterial ligand N-oleoyl serinol. Relative fluorescent intensity was recorded for each ligand concentration compared to background signal. All data points were performed in quadruplicate and error bars represent SD around the mean. […] The DCEA [5-(N-Ethylcarboxamido)adenosine] control is presented to confirm cAMP response of the parental cell line.
as §1

[4] = mice; cited from earlier work

SMILES: CCCCCCCC/C=C\CCCCCCCC(=O)OC(CO)CO [Compound 2-OG, 2-oleoyl glycerol]
- GLP-1 secretion (GLUTag cells): induced GLP-1 secretion to the same magnitude

SMILES: CCCCCCCCCCCCC/C=C/[C@@H](O)[C@@H](N)COP(=O)(O)O [Compound S1P, sphingosine-1-phosphate, reference compound]
- activation of S1PR3 (S1PR3): activates
- agonist activity at / interaction with S1PR4 [1]: activates
- pEC50 ([1]; β-arrestin assay, dose response in duplicate, read-out: EC50, activation of S1PR4): 7.05
- activation of S1PR1 (S1PR1): activates
- activation of S1PR2 (S1PR2): activates

SMILES: CCCCCCCCCCCCCC(O)CC(=O)NCC(=O)O (stereo not shown) [N-3-hydroxypalmitoyl glycine]
- activation of G2A (G2A): activate G2A

SMILES: CCCCCCCCCCCCCC(O)CC(=O)N[C@@H](CCCCN)C(=O)O (stereo partly shown) [N-3-hydroxypalmitoyl lysine]
- agonist activity at / interaction with S1PR4 [1]: specific agonist of S1PR4; also recorded: interacts with S1PR4

SMILES: CCCCCCCCCCCCCC(O)CC(=O)NC(CCCN)C(=O)O (stereo not shown) [N-3-hydroxypalmitoyl ornithine, N-3-OH-palmitoyl ornithine]
- activation of S1PR3 (S1PR3): did not activate
- agonist activity at / interaction with S1PR4 [1]: specific agonist of S1PR4; also recorded: interacts with S1PR4
- Emax ([1]; relative to endogenous ligand, read-out: maximal activation of S1PR4 compared with the endogenous ligand): 80%
- activation of S1PR1 (S1PR1): did not activate
- activation of S1PR2 (S1PR2): did not activate

SMILES: CCCCCCCCCCCC(O)CC(=O)OC(CCCCCCC)CC(=O)N[C@@H](CCC(N)=O)C(=O)O (stereo partly shown) [N-acyloxyacyl glutamine, 3-[(3-OH-myristoyl)oxy]decanoyl glutamine]
- antagonism of PTGIR (PTGIR; antagonist screen): specifically antagonized
- pIC50 (PTGIR; in the presence of endogenous ligand, read-out: IC50, antagonist activity against PTGIR): 4.82
- antagonism of PTGER4 (PTGER4; antagonist screen): antagonized
- pIC50 (PTGER4; in the presence of endogenous ligand, read-out: IC50, antagonist activity against PTGER4): 4.37

SMILES: CCCCCCCCCCCCCC(=O)N[C@@H](C)C(=O)O [N-myristoyl alanine]
- pEC50 (G2A; β-arrestin assay, dose response, read-out: EC50, activation of G2A): 5.52

SMILES: CCCCCCCC/C=C\CCCCCCCC(=O)NC(CO)CO [N-oleoyl serinol]
- interaction with GPR119 (GPR119 [2]): interacts with GPR119
- maximum GPR119 activation compared with OEA (GPR119 [2]; β-arrestin assay, FIG. 5A): ~2 fold
- cellular cAMP concentration (GPR119 [3]): increased cellular cAMP concentrations in a GPR119 dependent fashion
- GLP-1 secretion (GLUTag cells): induced GLP-1 secretion to the same magnitude

SMILES: CCCCCCCCCCCCCCCC(=O)N[C@@H](C)C(=O)O [N-palmitoyl alanine]
- activation of G2A (G2A): activate G2A

SMILES: CCCCCCCCCCCCCCCC(=O)NCC(=O)O [N-palmitoyl glycine]
- activation of G2A (G2A): activates G2A

SMILES: CCCCCCCCCCCCCCCC(=O)NC(CO)CO [N-palmitoyl serinol]
- interaction with GPR119 (GPR119 [2]): interacts with GPR119
- Emax (GPR119 [2]; relative to endogenous ligand, read-out: maximal activation of GPR119 compared with the endogenous ligand): 100%

SMILES: CCCCCCCC/C=C\CCCCCCCC(=O)NCCO [OEA, oleoylethanolamide]
- pEC50 (GPR119 [2]; β-arrestin assay, dose response in duplicate, read-out: EC50, activation of GPR119): 5.15
- blood glucose in OGTT after intravenous delivery [4]: fails to lower blood glucose
- pEC50 (GPR119 [3]; HEK293 cells expressing GPR119, quadruplicate, read-out: EC50, cAMP response): 5.29
- cellular cAMP concentration (GPR119 [3]): increased cellular cAMP concentrations in a GPR119 dependent fashion
- GLP-1 secretion (GLUTag cells): induced GLP-1 secretion to the same magnitude
